Assay results: ChEMBL document CHEMBL2150865, “Remarkable potential of the α-aminophosphonate/phosphinate structural motif in medicinal chemistry” (J Med Chem, 2011)
pIC50, pKi: −log10 of the molar value. Blank lines part the entries; values can stand above or below the compound they belong to.

Legend:
Collagenase 3 = Collagenase 3 (Homo sapiens, UniProt P45452); assay: Inhibition of MMP-13
[1] = molecular target: Matrix metalloproteinase-14 (Homo sapiens, UniProt P50281); assay: Inhibition of MMP-14
[2] = Half life in pH 7.8 buffer; type: physicochemical
[3] = Inhibition of Bacillus pasteurii urease; design: species or system Sporosarcina pasteurii
[4] = molecular target: T1, Angiotensin-converting enzyme (Homo sapiens, UniProt P12821); assay: Inhibition of ACE
[5] = Inhibition of bacterial APN; design: species or system Bacteria
[6] = Tmax in Sprague-Dawley rat at 20 mg/kg, sc administered as single dose; type: ADME, organism-based; design: dose 20 mg/kg, route subcutaneous; settings: in vivo
[7] = Half life in human at 200 mg, im; type: ADME, organism-based; settings: in vivo
Rattus norvegicus [8] = assay: AUC in Sprague-Dawley rat at 20 mg/kg, sc administered as single dose; type: ADME, organism-based, Plasma; design: dose 20 mg/kg, route subcutaneous; settings: in vivo
[9] = Half life in Sprague-Dawley rat at 20 mg/kg, sc administered as single dose; type: ADME, organism-based; design: dose 20 mg/kg, route subcutaneous; settings: in vivo
[10] = Inhibition of urease in intact Proteus mirabilis
[11] = molecular target: T1, Angiotensin-converting enzyme; assay: Inhibition of human ACE N-terminal domain expressed in CHO cells after 90 mins by fluorescence assay; type: cell-based
[12] = molecular target: T1, Angiotensin-converting enzyme; assay: Inhibition of human ACE C-terminal domain expressed in CHO cells after 90 mins by fluorescence assay; type: cell-based
Rattus norvegicus [13] = organism: Rattus norvegicus; assay: Inhibition of bone resorption in rat; type: functional; settings: read-out: MED
[14] = molecular target: T2, Farnesyl pyrophosphate synthase (Homo sapiens, UniProt P14324)
T2 sequence (P14324 whole entry): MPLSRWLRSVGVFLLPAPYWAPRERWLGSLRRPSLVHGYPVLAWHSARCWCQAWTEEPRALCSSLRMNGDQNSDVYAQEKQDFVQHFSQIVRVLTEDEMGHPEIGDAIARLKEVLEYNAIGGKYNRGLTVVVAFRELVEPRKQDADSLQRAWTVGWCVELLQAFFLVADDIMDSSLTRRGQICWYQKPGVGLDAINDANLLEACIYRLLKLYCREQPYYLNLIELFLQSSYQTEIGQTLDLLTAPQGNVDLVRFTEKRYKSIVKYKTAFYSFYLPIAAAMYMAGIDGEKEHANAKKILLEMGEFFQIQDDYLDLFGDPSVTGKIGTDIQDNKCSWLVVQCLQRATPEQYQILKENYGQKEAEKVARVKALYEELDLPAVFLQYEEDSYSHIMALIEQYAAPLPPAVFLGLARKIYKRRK

MDA-MB-231 = assay: Growth inhibition of human MDA-MB-231 cells; type: functional, cell-based
Homo sapiens [15] = assay: Reduction in systolic blood pressure in hypertensive patient receiving 10 to 40 mg/day, po dosed as single or multiple dose; type: functional, Artery; design: scale not given: the % may be the effect or the level left
Homo sapiens [16] = assay: Reduction in arterial blood pressure in hypertensive patient receiving 10 to 40 mg/day, po dosed as single or multiple dose; type: functional; design: scale not given: the % may be the effect or the level left
[17] = Cmax in healthy human at 10 mg dosed as single daily dose; type: ADME, organism-based; design: dose 10 mg; settings: in vivo
[18] = Drug absorption in healthy human at 10 mg dosed as single daily dose; type: ADME, organism-based; settings: in vivo, read-out: Drug absorption
[19] = Tmax in healthy human at 10 mg dosed as single daily dose; type: ADME, organism-based; settings: in vivo
Homo sapiens [20] = assay: Reduction in diastolic blood pressure in hypertensive patient receiving 10 to 40 mg/day, po dosed as single or multiple dose; type: functional, Artery; design: scale not given: the % may be the effect or the level left
[21] = AUC in healthy human at 10 mg dosed as single daily dose; type: ADME, organism-based; settings: plasma
Rattus norvegicus [22] = assay: Suppression of acute pulmonary transplant rejection in rat at 100 mg/kg; type: functional
Rattus norvegicus [23] = assay: Suppression of acute pulmonary transplant rejection in rat at 100 mg/kg at 100 mg/kg followed by 60 mg/kg/day until day 4 after surgery measured on day 5 post initial dose; type: functional
Oryctolagus cuniculus = assay: Inhibition of DPP4 activity in rabbit plasma at 1 to 10 mg, iv; type: functional
Cytosol aminopeptidase = Cytosol aminopeptidase (Homo sapiens, UniProt P28838); assay: Inhibition of LAP
[24] = Terminal half life in healthy human at 10 mg dosed as single daily dose; type: ADME, organism-based; settings: in vivo, read-out: beta t1/2 (converted)
[25] = Total body clearance in healthy human at 10 mg dosed as single daily dose; type: ADME, organism-based; settings: in vivo
[26] = Inhibition of ECE
Aminopeptidase N = Aminopeptidase N (Homo sapiens, UniProt P15144); assay: Inhibition of APN
Sequence of Aminopeptidase N (P15144 whole entry): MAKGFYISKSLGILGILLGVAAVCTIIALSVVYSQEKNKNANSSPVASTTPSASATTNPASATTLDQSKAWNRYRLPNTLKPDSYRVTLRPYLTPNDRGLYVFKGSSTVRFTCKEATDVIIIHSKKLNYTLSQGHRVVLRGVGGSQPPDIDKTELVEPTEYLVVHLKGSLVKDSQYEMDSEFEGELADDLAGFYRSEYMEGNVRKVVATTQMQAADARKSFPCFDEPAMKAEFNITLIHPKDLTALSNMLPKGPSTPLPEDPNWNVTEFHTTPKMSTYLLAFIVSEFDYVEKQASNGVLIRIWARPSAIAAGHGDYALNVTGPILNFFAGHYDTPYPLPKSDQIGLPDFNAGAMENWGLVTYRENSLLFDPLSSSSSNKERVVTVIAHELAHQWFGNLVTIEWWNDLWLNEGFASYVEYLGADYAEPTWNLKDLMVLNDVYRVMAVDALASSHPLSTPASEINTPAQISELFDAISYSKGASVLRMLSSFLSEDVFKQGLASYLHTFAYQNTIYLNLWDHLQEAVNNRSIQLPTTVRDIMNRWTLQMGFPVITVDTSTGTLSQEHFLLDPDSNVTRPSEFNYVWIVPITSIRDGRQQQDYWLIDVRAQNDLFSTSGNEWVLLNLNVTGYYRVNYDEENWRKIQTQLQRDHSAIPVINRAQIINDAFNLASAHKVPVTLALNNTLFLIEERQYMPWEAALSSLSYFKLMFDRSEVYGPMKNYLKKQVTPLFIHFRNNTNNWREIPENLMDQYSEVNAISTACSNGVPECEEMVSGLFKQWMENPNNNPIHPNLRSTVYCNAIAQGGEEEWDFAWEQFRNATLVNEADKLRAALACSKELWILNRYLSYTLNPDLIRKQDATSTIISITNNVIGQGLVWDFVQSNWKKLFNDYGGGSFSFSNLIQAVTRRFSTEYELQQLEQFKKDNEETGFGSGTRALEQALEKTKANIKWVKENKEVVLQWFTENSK

T1 sequence (P12821 whole entry): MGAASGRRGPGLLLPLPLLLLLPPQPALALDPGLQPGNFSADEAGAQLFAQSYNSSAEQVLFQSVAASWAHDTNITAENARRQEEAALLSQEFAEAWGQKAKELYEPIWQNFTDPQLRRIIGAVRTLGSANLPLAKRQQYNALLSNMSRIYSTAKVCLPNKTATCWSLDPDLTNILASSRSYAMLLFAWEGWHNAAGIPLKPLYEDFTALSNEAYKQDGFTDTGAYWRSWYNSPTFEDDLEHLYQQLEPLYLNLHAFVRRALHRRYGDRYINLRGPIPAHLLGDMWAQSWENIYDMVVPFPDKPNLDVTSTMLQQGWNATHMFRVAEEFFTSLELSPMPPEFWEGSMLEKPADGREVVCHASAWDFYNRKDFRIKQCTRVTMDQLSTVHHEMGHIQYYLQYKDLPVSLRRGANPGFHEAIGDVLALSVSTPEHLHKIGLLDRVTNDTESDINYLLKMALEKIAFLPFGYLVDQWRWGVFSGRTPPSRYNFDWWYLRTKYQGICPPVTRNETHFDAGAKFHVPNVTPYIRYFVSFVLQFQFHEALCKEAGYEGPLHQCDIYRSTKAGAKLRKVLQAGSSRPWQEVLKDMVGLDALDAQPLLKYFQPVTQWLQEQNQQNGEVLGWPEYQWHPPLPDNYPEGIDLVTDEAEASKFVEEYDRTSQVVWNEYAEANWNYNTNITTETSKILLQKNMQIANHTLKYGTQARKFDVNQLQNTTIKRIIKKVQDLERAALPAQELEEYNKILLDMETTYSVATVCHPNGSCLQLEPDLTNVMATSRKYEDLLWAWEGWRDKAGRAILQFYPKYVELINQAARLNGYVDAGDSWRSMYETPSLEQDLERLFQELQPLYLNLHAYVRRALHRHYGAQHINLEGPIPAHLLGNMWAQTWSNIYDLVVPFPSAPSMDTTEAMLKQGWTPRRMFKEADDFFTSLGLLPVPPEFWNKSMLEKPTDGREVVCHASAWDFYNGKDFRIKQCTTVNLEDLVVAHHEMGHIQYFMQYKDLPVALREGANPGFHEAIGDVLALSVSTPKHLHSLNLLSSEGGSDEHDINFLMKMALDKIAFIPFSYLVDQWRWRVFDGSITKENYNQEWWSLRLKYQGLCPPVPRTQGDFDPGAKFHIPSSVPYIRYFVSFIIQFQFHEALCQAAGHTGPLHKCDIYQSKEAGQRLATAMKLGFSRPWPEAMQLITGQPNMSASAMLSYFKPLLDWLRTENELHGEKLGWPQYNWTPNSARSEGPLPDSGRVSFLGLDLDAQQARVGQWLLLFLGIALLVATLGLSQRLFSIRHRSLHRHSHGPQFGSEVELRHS
Sequence of Cytosol aminopeptidase (P28838 whole entry): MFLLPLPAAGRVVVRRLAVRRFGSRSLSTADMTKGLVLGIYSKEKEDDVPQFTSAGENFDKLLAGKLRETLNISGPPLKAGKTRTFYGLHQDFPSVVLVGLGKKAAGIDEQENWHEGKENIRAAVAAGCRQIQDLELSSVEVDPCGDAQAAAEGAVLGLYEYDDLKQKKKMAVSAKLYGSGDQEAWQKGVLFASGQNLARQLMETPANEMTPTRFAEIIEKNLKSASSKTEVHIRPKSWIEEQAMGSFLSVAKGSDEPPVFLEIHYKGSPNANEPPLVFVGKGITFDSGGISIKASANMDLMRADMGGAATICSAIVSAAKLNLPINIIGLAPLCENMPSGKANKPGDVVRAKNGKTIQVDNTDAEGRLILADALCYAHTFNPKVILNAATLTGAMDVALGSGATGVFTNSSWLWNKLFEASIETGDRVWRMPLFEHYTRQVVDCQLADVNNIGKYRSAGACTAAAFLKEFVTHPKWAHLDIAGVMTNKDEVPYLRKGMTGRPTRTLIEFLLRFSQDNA

pKi (Collagenase 3): 7.55
pKi [1]: 5.29
SMILES: NC(=O)[C@H](Cc1c[nH]c2ccccc12)NC(=O)[C@@H](CP(=O)(O)[C@H](Cc1ccccc1)NC(=O)OCc1ccccc1)c1cc(-c2cccc(Oc3ccccc3)c2)no1

SMILES: C[C@H](N)C(=O)N1CCCC1P(=O)(Oc1ccc(Cl)cc1)Oc1ccc(Cl)cc1 (stereo not given in full)
half-life [2]: > 48 h

SMILES: C[C@H](N)C(=O)N1CCCCC1P(=O)(Oc1ccc(Cl)cc1)Oc1ccc(Cl)cc1 (stereo not given in full)
half-life [2]: > 48 h

SMILES: NCP(=O)(O)CO [AMINOMETHYL(HYDROXYMETHYL)PHOSPHINIC ACID]
pKi [3]: 4.02

pIC50 [4]: 7.92
SMILES: O=C(N[C@@H](CCc1ccccc1)CP(=O)(O)CC(=O)N1CCC[C@H]1C(=O)O)c1ccccc1

SMILES: CN(C)CP(C)(=O)O [(DIMETHYLAMINO)METHYL(METHYL)PHOSPHINIC ACID]
pKi [3]: 6.21

pKi [5]: 8.82
SMILES: C[C@H](N)P(=O)(O)C[C@@H](Cc1ccccc1)C(=O)N[C@@H](Cc1ccccc1)C(=O)O

Tmax [6]: 0.333 h
half-life [7]: 1 h
AUC (Rattus norvegicus [8]): 25000 ng·h/mL
half-life [9]: 0.333 h
SMILES: C[C@H](N)C(=O)N[C@@H](C)P(=O)(O)O [ALAFOSFALIN]

SMILES: CN(C)CP(=O)(O)CO [(DIMETHYLAMINO)METHYL(HYDROXYMETHYL)PHOSPHINIC ACID]
pKi [3]: 5.30

pIC50 [10]: 4.19
SMILES: CC(=O)NO [ACETOHYDROXAMIC ACID]

pKi [11]: 5.00
pKi [12]: 8.52
SMILES: O=C(N[C@@H](Cc1ccccc1)P(=O)(O)C1CCC[C@H]1C(=O)N[C@@H](Cc1c[nH]c2ccccc12)C(=O)O)OCc1ccccc1 (stereo not given in full)

SMILES: CNCP(=O)(O)CO [HYDROXYMETHYL((METHYLAMINO)METHYL)PHOSPHINIC ACID]
pKi [3]: 6.37

SMILES: NCCC(O)(P(=O)(O)O)P(=O)(O)O [PAMIDRONIC ACID]
minimal effective dose (Rattus norvegicus [13]): 30 µg/kg

SMILES: O=P(O)(O)C(NC1CCCCCC1)P(=O)(O)O [INCADRONIC ACID]
minimal effective dose (Rattus norvegicus [13]): 1 µg/kg
pIC50 [14]: 7.52

pKi [11]: 8.15
pKi [12]: 5.12
SMILES: CC(=O)N[C@@H](CC(=O)O)C(=O)N[C@@H](Cc1ccccc1)P(=O)(O)C[C@@H](C)C(=O)N[C@@H](C)C(N)=O

pIC50 (MDA-MB-231): 7.00
SMILES: CCCCCCCCCCOc1ccc[n+](CC(P(=O)([O-])O)P(=O)(O)O)c1 (stereo not given)

SMILES: CP(=O)(O)CN [AMINOMETHYL(METHYL)PHOSPHINIC ACID]
pKi [3]: 3.47

SMILES: CNCP(C)(=O)O [METHYL((METHYLAMINO)METHYL)PHOSPHINIC ACID]
pIC50 [10]: 4.44
pKi [3]: 4.74

Cmax [17]: 100 ng/mL
Fa [18]: 30%
Tmax [19]: 3 h
AUC [21]: 1000 ng·h/mL
SMILES: CCC(=O)O[C@@H](O[P@](=O)(CCCCc1ccccc1)CC(=O)N1C[C@H](C2CCCCC2)C[C@H]1C(=O)O)C(C)C [FOSINOPRIL]
Activity (Homo sapiens [15]): 10%
Activity (Homo sapiens [16]): 10%
Activity (Homo sapiens [20]): 10%

SMILES: CP(=O)(O)CNC(=O)CN
pKi [3]: 4.68

SMILES: CCOC(=O)CNC(=O)c1ccc(OP(=O)(Oc2ccc(C(=O)NCC(=O)OCC)cc2)C2CCCN2C(=O)[C@@H]2CCCN2)cc1 (stereo not given in full)
half-life [2]: 0.583 h

SMILES: CC(=O)Nc1ccc(OP(=O)(Oc2ccc(NC(C)=O)cc2)C2CCCN2C(=O)[C@@H]2CCCN2)cc1 (stereo not given in full)
half-life [2]: 5.33 h
Activity (Rattus norvegicus [22]): >95%
Activity (Rattus norvegicus [23]): >90%

SMILES: O=C([C@@H]1CCCN1)N1CCCC1P(=O)(Oc1ccccc1)Oc1ccccc1 (stereo not given in full)
inhibition (INH) (Oryctolagus cuniculus): 80%

pKi (Cytosol aminopeptidase): 4.24
SMILES: CC(C)CC(N)P(=O)(O)O[C@@H](CC(C)C)C(=O)O (stereo not given in full)

half-life [24]: 12 h
clearance [25]: 25.8 mL/min
pKi [4]: 8.82
SMILES: O=C(O)[C@@H]1C[C@@H](C2CCCCC2)CN1C(=O)CP(=O)(O)CCCCc1ccccc1 [FOSINOPRILAT]

SMILES: O=P(O)(O)C(O)(Cc1cccnc1)P(=O)(O)O [RISEDRONIC ACID]
minimal effective dose (Rattus norvegicus [13]): 0.3 µg/kg

SMILES: NCCCC(O)(P(=O)(O)O)P(=O)(O)O [ALENDRONIC ACID]
minimal effective dose (Rattus norvegicus [13]): 1 µg/kg

SMILES: O.O=P(O)(O)C(O)(Cn1ccnc1)P(=O)(O)O [ZOLEDRONIC ACID]
minimal effective dose (Rattus norvegicus [13]): 0.1 µg/kg

pKi [26]: 7.85
SMILES: O=C(N[C@@H](Cc1ccccc1)P(=O)(O)C[C@H](Cc1cc(-c2ccccc2)no1)C(=O)N[C@@H](Cc1ccc(O)cc1)C(=O)O)OCc1ccccc1

SMILES: CC(C)CC(CP(=O)(O)[C@@H](N)CC(C)C)C(=O)O (mixture of isomers)
pKi (Cytosol aminopeptidase): 7.19
pKi (Aminopeptidase N): 5.99

SMILES: CP(O)(=S)CNC(=O)CNC(=O)OCc1ccccc1 (stereo not given)
pKi [3]: 6.77
